Where two headings read alike, the source gives them in different places.
Assays:
[1] = system: HUV-EC-C cells; VEGF; experiment: HUVEC-VEGF 3H-thymidine incorporation assay; type: cell-based, human
Protocol: The following protocol is used to measure a compound's activity against VEGF and aFGF, all of which are expressed by HUVEC cells.
1. […] After cells have detached from the flask, add an equal volume of assay medium and transfer to a 50 mL sterile centrifuge tube (Fisher Scientific; catalogue no. 05-539-6).
2. Wash the cells with about 35 mL assay medium in the 50 mL sterile centrifuge tube by adding the assay medium, centrifuge for 10 minutes at approximately 200×g, aspirate the supernatant, and resuspend with 35 mL D-PBS. Repeat the wash two more times with D-PBS, resuspend the cells in about 1 mL assay medium/15 cm^2 of tissue culture flask. Assay medium consists of F12K medium (Gibco BRL; catalogue no. 21127-014)+0.5% heat-inactivated fetal bovine serum. Count the cells with a Coulter Counter® (Coulter Electronics, Inc.) and add assay medium to the cells to obtain a concentration of 0.8-1.0×10^5 cells/mL.
3. Add cells to 96-well flat-bottom plates at 100 μL/well or 0.8-1.0×10^4 cells/well; incubate ˜24h at 37° C., 5% CO^2.
1. Make up two-fold drug titrations in separate 96-well plates, generally 50 μM on down to 0 μM. Use the same assay medium as mentioned in day 0, step 2 above. Titrations are made by adding […] of drug at 200 μM (4× the final well concentration) to the top well of a particular plate column. Since the stock drug concentration is usually 20 mM in DMSO, the 200 μM drug concentration contains 2% DMSO.
Therefore, diluent made up to 2% DMSO in assay medium (F12K+0.5% fetal bovine serum) is used as diluent for the drug titrations in order to dilute the drug but keep the DMSO concentration constant. Add this diluent to the remaining wells in the column at 60 μL/well. Take 60 μL from the 120 μL of 200 μM drug dilution in the top well of the column and mix with the 60 μL in the second well of the column. Take 60 μL from this well and mix with the 60 μL in the third well of the column, and so on until two-fold titrations are completed. When the next-to-the-last well is mixed, take 60 μL of the 120 μL in this well and discard it. Leave the last well with 60 μL of DMSO/media diluent as a non-drug-containing control. Make 9 columns of titrated drug, enough for triplicate wells each for 1) VEGF (obtained from Pepro Tech Inc., catalogue no. 100-200, 2) endothelial cell growth factor (ECGF) (also known as acidic fibroblast growth factor, or aFGF) (obtained from Boehringer Mannheim Biochemica, catalogue no. 1439 600); or, 3) human PDGF B/B (1276-956, Boehringer Mannheim, Germany) and assay media control. ECGF comes as a preparation with sodium heparin.
2. Transfer 50 μL/well of the drug dilutions to the 96-well assay plates containing the 0.8-1.0×10^4 cells/100 μL/well of the HUV-EC-C cells from day 0. and incubate ˜2 h at 37° C., 5% CO2.
3. […] As with the drugs, the growth factor concentrations are 4× the desired final concentration. Use the assay media from day 0 step 2 to make the concentrations of growth factors. Incubate approximately 24 hours at 37° C., 5% CO2. Each well will have 50 μL drug dilution, 50 μL growth factor or media, and 100 μL cells, =200 μL/well total. Thus the 4× concentrations of drugs and growth factors become 1× once everything has been added to the wells.
1. Add ^3H-thymidine (Amersham; catalogue no. TRK-686) at 1 μCi/well (10 μL/well Of 100 μCi/mi solution made up in RPMI media +10% heat-inactivated fetal bovine serum) and incubate μ24 h at 37° C., 5% CO2. RPMI was obtained from Gibco BRL, catalogue no. 11875-051.
1. Freeze plates overnight at […]
1. Thaw plates and harvest with a 96-well plate harvester (Tomtec Harvester 96®) onto filter mats (Wallac; catalogue no. 1205-401); read counts on a Wallac Betaplate™ liquid scintillation counter.
The IC50 values were measured for several of the compounds of the invention.

[2] = system: HUV-EC-C cells; aFGF (ECGF); experiment: HUVEC-aFGF 3H-thymidine incorporation assay; type: cell-based, human
Protocol: Use the same assay medium as mentioned in day 0, step 2 above. Titrations are made by adding 90 μL/well of drug at 200 μM (4× the final well concentration) to the top well of a particular plate column. Since the stock drug concentration is usually 20 mM in DMSO, the 200 μM drug concentration contains 2% DMSO.
Therefore, diluent made up to 2% DMSO in assay medium (F12K+0.5% fetal bovine serum) is used as diluent for the drug titrations in order to dilute the drug but keep the DMSO concentration constant. Add this diluent to the remaining wells in the column at 60 μL/well. Take 60 μL from the 120 μL of 200 μM drug dilution in the top well of the column and mix with the 60 μL in the second well of the column. Take 60 μL from this well and mix with the 60 μL in the third well of the column, and so on until two-fold titrations are completed. When the next-to-the-last well is mixed, take 60 μL of the 120 μL in this well and discard it. Leave the last well with 60 μL of DMSO/media diluent as a non-drug-containing control. Make 9 columns of titrated drug, enough for triplicate wells each for 1) VEGF (obtained from Pepro Tech Inc., catalogue no. […] ECGF comes as a preparation with sodium heparin.
In triplicate, add 50 μL/well of 80 μg/mL VEGF, 20 ng/mL ECGF, or media control to each drug condition. As with the drugs, the growth factor concentrations are 4× the desired final concentration. Use the assay media from day 0 step 2 to make the concentrations of growth factors.
Freeze plates overnight at 20° C.

| Structure (SMILES) | IC50 ([1]; Homo sapiens) | IC50 ([2]; Homo sapiens) | IC50 [1] | IC50 [2] |
| --- | --- | --- | --- | --- |
| Cc1c[nH]c(C=C2C(=O)Nc3cc(Cl)ccc32)c1CCC(=O)O [IN-030, 3-[2-(6-Chloro-2-oxo-1,2-dihydro-indol-3-ylidenemethyl)-4-methyl-1H-pyrrol-3-yl]-propionic acid] | 16 nM | 260 nM |  |  |
| Cc1c[nH]c(C=C2C(=O)Nc3ccccc32)c1CCC(=O)O [IN-026, 3-[4-Methyl-2-(2-oxo-1,2-dihydro-indol-3-ylidenemethyl)-1H-pyrrol-3-yl]-propionic acid] |  | 1100 nM |  |  |
| NC(=O)CCc1c(C=C2C(=O)Nc3ccccc32)[nH]c2c1CCCC2 [IN-010, 3-[2-(2-Oxo-1,2-dihydro-indol-3-ylidenemethyl)-4,5,6,7-tetrahydro-1H-indol-3-yl]-propionamide] | < 30 nM | 100 nM |  |  |
| CN(C)CCCc1c(C=C2C(=O)Nc3ccccc32)[nH]c2c1CCCC2 [IN-009, 3-[3-(3-Dimethylamino-propyl)-4,5,6,7-tetrahydro-1H-indol-2-ylmethylene]-1,3-dihydro-indol-2-one] | 290 nM | 1700 nM |  |  |
| COc1ccc2c(c1)NC(=O)C2=Cc1[nH]cc(C)c1CCC(=O)O [IN-028, 3-[2-(6-Methoxy-2-oxo-1,2-dihydro-indol-3-ylidenemethyl)-4-methyl-1H-pyrrol-3-yl]-propionic acid] | 620 nM | 4800 nM |  |  |
| CN(C)C(=O)CCc1c(C=C2C(=O)Nc3ccccc32)[nH]c2c1CCCC2 [IN-008, N,N-Dimethyl-3-[2-(2-oxo-1,2-dihydro-indol-3-ylidenemethyl)-4,5,6,7-tetrahydro-1H-indol-3-yl]-propionamide] | < 3 nM | 2200 nM |  |  |
| Cc1c[nH]c(C=C2C(=O)Nc3cccc(C)c32)c1CCC(=O)O [IN-029, 3-[2-(4-Methyl-2-oxo-1,2-dihydro-indol-3-ylidenemethyl)-4-methyl-1H-pyrrol-3-yl]-propionic acid] | < 70 nM | 350 nM |  |  |
| COc1ccc2c(c1)NC(=O)C2=Cc1[nH]c2c(c1CCC(=O)O)CCCC2 [IN-007, 3-[2-(6-Methoxy-2-oxo-1,2-dihydro-indol-3-ylidenemethyl)-4,5,6,7-tetrahydro-1H-indol-3-yl]-propionic acid] | 20 nM | 1600 nM |  |  |
| Cc1c[nH]c(C=C2C(=O)Nc3ccc(Cl)cc32)c1CCC(=O)O [IN-027, 3-[2-(5-Chloro-2-oxo-1,2-dihydro-indol-3-ylidenemethyl)-4-methyl-1H-pyrrol-3-yl]-propionic acid] | < 70 nM | 1400 nM |  |  |
| O=C(O)CCc1c(C=C2C(=O)Nc3ccc(Br)cc32)[nH]c2c1CCCC2 [IN-003, 3-[2-(5-Bromo-2-oxo-1,2-dihydro-indol-3-ylidenemethyl)-4,5,6,7-tetrahydro-1H-indol-3-yl]-propionic acid] | 0.3 nM | 76 nM |  |  |
| Cc1c[nH]c(C=C2C(=O)Nc3ccc(Br)cc32)c1CCC(=O)O [IN-031, 3-[2-(5-Bromo-2-oxo-1,2-dihydro-indol-3-ylidenemethyl)-4-methyl-1H-pyrrol-3-yl]-propionic acid] | 40 nM |  |  |  |
| O=C1Nc2ccccc2C1=Cc1[nH]c2c(c1CCC(=O)N1CCOCC1)CCCC2 [IN-011, 3-[3-(3-Morpholin-4-yl-3-oxo-propyl)-4,5 6,7-tetrahydro-1H-indol-2-ylmethylene]-1,3-dihydro-indol-2-one] | 220 nM | 9200 nM |  |  |
| O=C(CCc1c(C=C2C(=O)Nc3ccccc32)[nH]c2c1CCCC2)NCCN1CCOCC1 [IN-013, N-(2-Morpholin-4-yl-ethyl)-3-[2-(2-oxo-1,2-dihydro-indol-3-ylidenemethyl)-4,5,6,7-tetrahydro-1H-indol-3-yl]-propionamide] | < 30 nM | 2100 nM |  |  |
| CNC(=O)CCc1c(C=C2C(=O)Nc3ccccc32)[nH]c2c1CCCC2 [IN-012, N-Methyl-3-[2-(2-oxo-1,2-dihydro-indol-3-ylidenemethyl)-4,5,6,7-tetrahydro-1H-indol-3-yl]-propionamide] | < 30 nM | 160 nM |  |  |
| O=C(O)CCc1c(C=C2C(=O)Nc3ccc(Cl)cc32)[nH]c2c1CCCC2 [IN-002, 3-[2-(5-Chloro-2-oxo-1,2-dihydro-indol-3-ylidenemethyl)-4,5.6,7-tetrahydro-1H-indol-3-yl]-propionic acid] |  |  | 0.04 nM | 250 nM |
| Cc1ccc2c(c1)C(=Cc1[nH]c3c(c1CCC(=O)O)CCCC3)C(=O)N2 [IN-005, 3-[2-(5-Methyl-2-oxo-1,2-dihydro-indol-3-ylidenemethyl)-4,5,6,7-tetrahydro-1H-indol-3-yl]-propionic acid] | 1 nM | 4.4 nM |  |  |
| Cc1cccc2c1C(=Cc1[nH]c3c(c1CCC(=O)O)CCCC3)C(=O)N2 [IN-004, 3-[2-(4-Methyl-2-oxo-1,2-dihydro-indol-3-ylidenemethyl)-4,5,6,7-tetrahydro-1H-indol-3-yl]-propionic acid] | 0.94 nM | 2.5 nM |  |  |
| O=C(O)CCc1c(C=C2C(=O)Nc3ccccc32)[nH]c2c1CCCC2 [IN-001, 3-[2-(2-Oxo-1,2-dihydro-indol-3-ylidenemethyl)-4,5,6,7-tetrahydro-1H-indol-3-yl]-propionic acid] | 1.9 nM | 15.9 nM |  |  |

— US20040067531A1, “Methods of modulating protein tyrosine kinase function with substituted indolinone compounds” (SUGEN, INC., priority 1997, published 2004)
